Publication PMC3977574, “Structural Basis of Mos1 Transposase Inhibition by the Anti-retroviral Drug Raltegravir” (ACS Chemical Biology, 2014)

Molecular target: T1, Mos1 transposase (Drosophila mauritiana, UniProt Q7JQ07, T216A)
T1 construct: gene mariner\T; Mos1 transposase catalytic domain (crystal); Mos1 transposase and paired-end complex (thermal denaturation and activity assays)
Experiment: X-ray co-crystal structures at […] Å (soak); thermal denaturation shift; strand transfer assay IC50 […]; plasmid cleavage assay IC50 […]
Format: biochemical

T1 sequence (Q7JQ07 whole entry T216A, the tested form may be a part): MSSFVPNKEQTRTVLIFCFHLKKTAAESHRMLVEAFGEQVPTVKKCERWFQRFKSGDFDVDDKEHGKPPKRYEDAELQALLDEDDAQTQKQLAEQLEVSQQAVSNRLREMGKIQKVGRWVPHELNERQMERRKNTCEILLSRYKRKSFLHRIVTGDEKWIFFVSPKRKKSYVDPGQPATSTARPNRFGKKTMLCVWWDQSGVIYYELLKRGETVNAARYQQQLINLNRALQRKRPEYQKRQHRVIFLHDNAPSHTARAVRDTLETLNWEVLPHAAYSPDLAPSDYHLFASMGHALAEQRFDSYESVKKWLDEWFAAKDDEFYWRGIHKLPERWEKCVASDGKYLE

Q: How did the IC50 turn out when `Cc1nnc(C(=O)NC(C)(C)c2nc(C(=O)NCc3ccc(F)cc3)c(O)c(=O)n2C)o1` [Raltegravir] was run?
A: ~2000 nM
